Source: publication PMC12349723, “Computationally accelerated identification of P-glycoprotein inhibitors” (PLOS One, 2025)
“And” between values parts separate entries of the source, which are not always exact repeats. Equal entries are not always repeated. Where two headings read alike, the source gives them in different places.

Experiments:
[1] = tested on: P-gp; assay: SWISS-ADME prediction of P-gp transport substrate; conditions: prediction compared to the LC-MS/MS intracellular accumulation data
Description: Identifying P-gp inhibitors that are not transport substrates remains inherently challenging. To that end, computational tools such as the SWISS-ADME server attempt to use a molecule’s unique chemical and structural characteristics to predict whether it is likely to be a P-gp transport substrate. Our LC-MS/MS assays allowed us to retroactively test the validity of predictions from SWISS-ADME. […] Alternative identifiers for the molecules identified in this study are shown in S7 Table.
S1 Table. Known P-gp Inhibitors and Predicted Chemical Properties. A non-exhaustive list of known P-gp inhibitors and their selected chemical properties ^[64, 65]. Clinical trial outcomes were adapted from ^[10, 11]. Compounds were evaluated using the SWISS-ADME server ^[54]. […] “Predicted P-gp Substrate” - predicted by SWISS-ADME to be a transport substrate of P-gp. “Known P-gp Substrate” – In addition to being P-gp inhibitors, these molecules are: known transport substrates of P-gp, known non-transport substrates of P-gp, unknown whether it is a transport substrate of P-gp ^[66-68]. If the molecule is designated in a specific generation of P-gp inhibitors - First Generation P-gp inhibitors, Second generation P-gp inhibitors, Third generation P-gp inhibitors.

[2] = tested on: DU145 cells; assay: MTT viability assay, non-P-gp overexpressing DU145 parental line, with or without PTX; assay type: cell-based, human; conditions: for viability at 15 µM: Homo sapiens, DU-145, 48 h; for Sensitization of DU145 cells to PTX: 15 µM compound + PTX vs PTX alone
Method: The chemotherapeutic sensitive DU145 human prostate cancer cells and the multidrug resistant sub-line, DU145-TXR, were generous gifts from Dr. Evan Keller (University of Michigan, Ann Arbor, MI). The MDR, P-gp overexpressing DU145-TXR cells were maintained under positive selection pressure by supplementing complete medium with 10 nM paclitaxel (Acros Organics, NJ). […] The MDR, P-gp overexpressing A2780-ADR cell line was maintained under positive selection pressure by supplementing complete medium with 100 nM doxorubicin (Fisher Scientific, NJ). The non-cancerous HFL1 (human lung fibroblast) cell line cell line was a generous gift from Dr. Robert Harrod (Southern Methodist University, Dallas, TX) and was maintained in complete F12K media consisting of F12K with 10% fetal bovine serum, 100 U/mL penicillin, and 100 µg/mL streptomycin (Gibco). Flasks and 96 well plates that were used with the non-cancerous line HFL1 were pre-treated with 0.1 mg/ml Collagen Type 1 (Gibco) and rinsed with PBS (Fisher).
Culture of the DU145, DU145-TXR, and HFL1 cell lines was performed as described in [8]. Culture of the A2780 and A2780-ADR cell lines was performed as described in [9]. MTT assays were performed as described in [8] with minor modifications. […] Data represent the mean of two separate experiments, with n = 3 samples per experiment (n = 6 total) (S4 Table).
MTT assays measure the reduction of yellow, water soluble 3-(4,5-dimethylthiazol-2-yl)-2,5-diphenyltetrazolium bromide (MTT) to blue, insoluble formazan crystals by cellular reductase processes in living cells. Cells were trypsinized from monolayers and seeded in complete medium in 96 well plates. Cancerous cell lines (DU145, DU145-TXR, A2780, A2780-ADR) were seeded at 3,000 cells per well in complete RPMI medium. The non-cancerous HFL1 line was seeded at 4,000 cells per well in complete F12K medium, in collagen-treated plates (Collagen Type 1, Gibco). Cells were incubated with experimental compounds for 48 hours at 37 °C and 5% CO2 in a humidified incubator. At 48 hours, MTT was added (20 µL/well of 5 mg/mL MTT in PBS) to each well. After incubation for 4 hours, the media was removed, and the formazan crystals were dissolved in 100 µL DMSO per well. Plates containing the semi-adherent A2780 or A2780-ADR lines were spun at 1400 rpm for 3 minutes prior to aspiration of media, and the addition of DMSO. Plates were shaken for 10 minutes at 500 rpm on an Orbital shaker (LabDoctor from MidSci, St Louis, MO). The absorbance was measured at 570 nm using a Bio-Tek Cytation 5 (Bio-Tek, Winooski, VT). The measured absorbance value was correlated with the number of metabolically active cells in that well, corrected for absorbance of media. The percent of cell viability (termed ‘survival’ here) was calculated as a percentage of survival of the control condition, which refers to vehicle-treated (DMSO as vehicle) cells, or vehicle-and-chemotherapeutic-treated cells, if testing a compound’s ability to re-sensitize cells to a chemotherapeutic. Percent survival was calculated using the following equation:
% Survival=100 × absorbance of experimental cells/mean absorbance of control treated cells
For DU145-TXR, DU145, HFL1 and A2780 cells – data are the mean ± one standard deviation, 8 samples per compound, from at least two independent trials per compound. […] For A2780-ADR cells, data are the mean ± one standard deviation with 12 samples per compound, from at least two independent trials per compound.
67 compounds were chosen from computational screens for testing in vitro. A) DU145-TXR cells were exposed to 15 µM experimental compound with or without 500 nM of the P-gp substrate and chemotherapeutic paclitaxel (PTX).

[3] = DU145 cells, 48 h, mean of 8 samples
[4] = DU145 cells, 48 h, mean of 8 samples, read-out: % Survival, Mean, 15 µM Compound alone
[5] = DU145 cells, 48 h, single samples, 2 trials x 4 samples
[6] = DU145 cells, 48 h, single samples, 2 trials x 4 samples, read-out: % Survival, 15 µM Compound alone (individual samples)

SMILES | Correct P-gp Substrate Prediction? [1] | % Survival, Mean, 15 µM compound + 500 nM PTX [2, 3] | viability at 15 µM [2, 4] | Sensitization of DU145 cells to PTX [2] | % Survival, 15 µM Compound alone (individual samples) [2, 5] | % Survival, 15 µM compound + 500 nM PTX (individual samples) [2, 5] | viability at 15 µM [2, 6] | % Survival, Mean, 15 µM Compound alone [2, 3]
Nc1nonc1-n1nnc(C(=O)N/N=C/c2c3ccccc3cc3ccccc23)c1COc1ccc(F)cc1 [Compound 60, Nc1nonc1-n1nnc(C(=O)N\N=C\c2c3ccccc3cc3ccccc23)c1COc1ccc(F)cc1] | No |  |  |  |  |  |  | 
CCN1CCN(Cc2c(C(=O)N/N=C3/C(=O)N(C)c4ccccc43)nnn2-c2nonc2N)CC1 [Compound 61, CCN1CCN(Cc2c(nnn2-c2nonc2N)C(=O)N\N=C2\C(=O)N(C)c3ccccc23)CC1] | Yes | 14.3% | 55.6% |  |  |  |  | 
O=C(c1cc2ccccc2[nH]1)N1CCN(S(=O)(=O)c2cccc3nonc23)CC1 [Compound 66, O=C(N1CCN(CC1)S(=O)(=O)c1cccc2nonc12)c1cc2ccccc2[nH]1] | No |  |  |  |  |  |  | 
O=C(c1nc(-c2ccc3cc[nH]c3c2)no1)N1CCN(c2nsc3ccccc23)CC1 [Compound 70, O=C(N1CCN(CC1)c1nsc2ccccc12)c1nc(no1)-c1ccc2cc[nH]c2c1] | No | 30.5% | 84.7% | insignificantly sensitize DU145 cells to PTX | 88% | 32% and 30% |  | 
COc1ccc(OC)c(NC(=O)c2nnn(-c3ccc4noc(-c5ccccc5)c4c3)c2C)c1 [Compound 71, COc1ccc(OC)c(NC(=O)c2nnn(c2C)-c2ccc3noc(-c4ccccc4)c3c2)c1] | No |  |  |  |  |  |  | 
Cc1onc(-c2ccccc2)c1-c1nnc(Cn2cnc3c(oc4ccccc43)c2=O)o1 [Compound 78, Cc1onc(c1-c1nnc(Cn2cnc3c4ccccc4oc3c2=O)o1)-c1ccccc1] | No | 33.6% | 89.2% | insignificantly sensitize DU145 cells to PTX | 94% | 31% |  | 
O=S(=O)(CCSc1nnc(-c2ccccc2)c2ccccc12)c1ccccc1 [Compound 96, O=S(=O)(CCSc1nnc(-c2ccccc2)c2ccccc12)c1ccccc1] | Yes | 28.8% | 77% | insignificantly sensitize DU145 cells to PTX | 65% | 26% |  | 
O=S(=O)(Cc1nc2ccccc2n1CC(O)c1ccc(Cl)cc1)c1ccccc1 (stereo not shown) [Compound 97, OC(Cn1c(CS(=O)(=O)c2ccccc2)nc2ccccc12)c1ccc(Cl)cc1] | Yes | 23.9% | 73.5% | insignificantly sensitize DU145 cells to PTX | 72% |  |  | 
COc1cccc(N2CCN(c3ccc4nnc(CCC(=O)Nc5ccc(F)c(F)c5)n4n3)CC2)c1 [Compound 101, COc1cccc(c1)N1CCN(CC1)c1ccc2nnc(CCC(=O)Nc3ccc(F)c(F)c3)n2n1] | No | 24.0% | 89.9% | insignificantly sensitize DU145 cells to PTX | 89% |  | 92% | 
Cc1ccc(-c2noc(-c3cn(Cc4ccc(NS(=O)(=O)c5ccccc5F)cc4)cn3)n2)cc1 [Compound 103, Cc1ccc(cc1)-c1noc(n1)-c1cn(Cc2ccc(NS(=O)(=O)c3ccccc3F)cc2)cn1] | No | 29.4% | 77.7% | insignificantly sensitize DU145 cells to PTX |  |  |  | 
Cc1onc(-c2ccccc2)c1-c1nnc(Cn2cnc3ccccc3c2=O)o1 [Compound 111, Cc1onc(c1-c1nnc(Cn2cnc3ccccc3c2=O)o1)-c1ccccc1] | No | 19.3% | 73.5% | insignificantly sensitize DU145 cells to PTX | 72% |  | 80% | 
O=C(NCc1cccc(F)c1)c1nnn2c1Sc1c(C(=O)NCc3cccc(F)c3)nnn1CC2 [Compound 122, Fc1cccc(CNC(=O)c2nnn3CCn4nnc(C(=O)NCc5cccc(F)c5)c4Sc23)c1] | Yes | 19.4% | 60.9% | insignificantly sensitize DU145 cells to PTX |  |  |  | 
O=C(c1nc(-c2ccccn2)no1)N1CCN(c2nsc3ccccc23)CC1 [Compound 124, O=C(N1CCN(CC1)c1nsc2ccccc12)c1nc(no1)-c1ccccn1] | No | 20.9% | 76.9% | insignificantly sensitize DU145 cells to PTX | 85% | 17% and 26% |  | 
COc1ccc2c3c([nH]c2c1)[C@H](CC(C)C)N1C(=O)[C@H](CCC(=O)OC(C)(C)C)NC(=O)[C@@H]1C3 [Ko143, reference compound] |  | 20.1% |  |  | 89% and 88% and 53% and 50% and 46% and 42% and 86% and 91% | 12% and 13% and 16% and 22% and 23% and 24% and 25% |  | 68.1%
COc1cc2c(cc1OC)CN(CCc1ccc(NC(=O)c3cc(OC)c(OC)cc3NC(=O)c3cnc4ccccc4c3)cc1)CC2 [Tariquidar, reference compound] |  | 12.0% | 86.1% |  |  |  |  | 
